According to paper PMC9299836 (eLife, 2022):

Columns and labels:
mGluR2 [1] = target: T1, mGluR2 (Mus musculus, UniProt Q14BI2, A548F); experiment: smFRET of azi-CRD: cross-correlation of donor and acceptor intensities (CRD dynamics) and HMM transition density plots; conditions: for CRD dynamics by cross-correlation of donor and acceptor intensities: azi-CRD;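 on all read-outs here: single detergent-solubilized receptors captured on antibody-coated flow cells via C-terminal FLAG-tag, imaged by smFRET, donor and acceptor intensity traces from three independent biological replicates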
mGluR2 [2] = target: T1, mGluR2; experiment: Single-molecule FRET (SiMPull) of azi-CRD: population histograms and state occupancy; conditions: 0μM Glutamate + GPT/Pyruvate + 5μM MNI-137, N 3;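 further: Cy3/Cy5-labelled receptor from HEK293T cell lysate captured on anti-FLAG surfaces, apparent FRET efficiency computed from donor and acceptor intensities with crosstalk correction, pooled into population histograms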

T1 sequence (Q14BI2 19-872 A548F): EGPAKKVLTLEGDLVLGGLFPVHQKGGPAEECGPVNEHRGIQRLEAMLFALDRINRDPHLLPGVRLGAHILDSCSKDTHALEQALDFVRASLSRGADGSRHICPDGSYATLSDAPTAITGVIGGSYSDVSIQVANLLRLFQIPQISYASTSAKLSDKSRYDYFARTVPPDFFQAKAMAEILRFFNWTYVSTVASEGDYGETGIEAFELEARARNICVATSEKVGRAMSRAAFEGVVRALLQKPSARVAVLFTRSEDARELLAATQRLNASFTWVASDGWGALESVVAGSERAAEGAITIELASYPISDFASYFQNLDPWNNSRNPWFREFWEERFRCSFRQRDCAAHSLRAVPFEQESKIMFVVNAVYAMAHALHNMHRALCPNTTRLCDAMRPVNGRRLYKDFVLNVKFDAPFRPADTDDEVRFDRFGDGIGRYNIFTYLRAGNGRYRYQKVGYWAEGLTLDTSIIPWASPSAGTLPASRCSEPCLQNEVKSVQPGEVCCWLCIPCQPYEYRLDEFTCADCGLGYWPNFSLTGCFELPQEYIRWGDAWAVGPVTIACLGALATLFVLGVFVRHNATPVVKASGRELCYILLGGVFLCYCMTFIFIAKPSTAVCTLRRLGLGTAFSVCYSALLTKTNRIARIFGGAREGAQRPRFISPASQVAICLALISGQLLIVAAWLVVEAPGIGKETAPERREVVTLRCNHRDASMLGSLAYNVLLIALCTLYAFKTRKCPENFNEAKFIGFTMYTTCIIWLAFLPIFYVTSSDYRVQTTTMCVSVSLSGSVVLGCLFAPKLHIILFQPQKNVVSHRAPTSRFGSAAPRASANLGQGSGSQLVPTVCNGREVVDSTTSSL

- Cross Correlation, Mean (mGluR2 [1]; 15μM Glutamate + 5μM MNI-137, Time 1.2 s): -0.03365
- Cross Correlation, Mean (mGluR2 [1]; 15μM Glutamate + 5μM MNI-137, Time 1.25 s): -0.03207
- Cross Correlation, Mean (mGluR2 [1]; 15μM Glutamate + 5μM MNI-137, Time 1.3 s): -0.02844
- Cross Correlation, Mean (mGluR2 [1]; 15μM Glutamate + 5μM MNI-137, Time 1.35 s): -0.02868
- Cross Correlation, Mean (mGluR2 [1]; 15μM Glutamate + 5μM MNI-137, Time 1.4 s): -0.02437
- Cross Correlation, Mean (mGluR2 [1]; 15μM Glutamate + 5μM MNI-137, Time 1.45 s): -0.02342
- Cross Correlation, Mean (mGluR2 [1]; 15μM Glutamate + 5μM MNI-137, Time 1.55 s): -0.02529
- Cross Correlation, Mean (mGluR2 [1]; 15μM Glutamate + 5μM MNI-137, Time 1.6 s): -0.02454
- Cross Correlation, Mean (mGluR2 [1]; 15μM Glutamate + 5μM MNI-137, Time 1.65 s): -0.02035
- Cross Correlation, Mean (mGluR2 [1]; 15μM Glutamate + 5μM MNI-137, Time 1.75 s): -0.02381
- Cross Correlation, Mean (mGluR2 [1]; 15μM Glutamate + 5μM MNI-137, Time 1.8 s): -0.02039
- Cross Correlation, Mean (mGluR2 [1]; 15μM Glutamate + 5μM MNI-137, Time 1.85 s): -0.02364
- Cross Correlation, Mean (mGluR2 [1]; 15μM Glutamate + 5μM MNI-137, Time 1.9 s): -0.02018
- Cross Correlation, Mean (mGluR2 [1]; 15μM Glutamate + 5μM MNI-137, Time 1.95 s): -0.01877
- Cross Correlation, Mean (mGluR2 [1]; 1000μM Glutamate + 5μM MNI-137, Time 0.2 s): -0.2112
- Cross Correlation, Mean (mGluR2 [1]; 1000μM Glutamate + 5μM MNI-137, Time 0.25 s): -0.1919
- Cross Correlation, Mean (mGluR2 [1]; 1000μM Glutamate + 5μM MNI-137, Time 0.3 s): -0.1758
- Cross Correlation, Mean (mGluR2 [1]; 1000μM Glutamate + 5μM MNI-137, Time 0.35 s): -0.1629
- Cross Correlation, Mean (mGluR2 [1]; 1000μM Glutamate + 5μM MNI-137, Time 0.4 s): -0.1514
- Cross Correlation, Mean (mGluR2 [1]; 1000μM Glutamate + 5μM MNI-137, Time 0.45 s): -0.1426
- Cross Correlation, Mean (mGluR2 [1]; 1000μM Glutamate + 5μM MNI-137, Time 0.5 s): -0.1307
- Cross Correlation, Mean (mGluR2 [1]; 1000μM Glutamate + 5μM MNI-137, Time 0.55 s): -0.1241
- Cross Correlation, Mean (mGluR2 [1]; 1000μM Glutamate + 5μM MNI-137, Time 0.6 s): -0.1177
- Cross Correlation, Mean (mGluR2 [1]; 1000μM Glutamate + 5μM MNI-137, Time 0.65 s): -0.1093
- Cross Correlation, Mean (mGluR2 [1]; 1000μM Glutamate + 5μM MNI-137, Time 0.7 s): -0.1013
- Cross Correlation, Mean (mGluR2 [1]; 1000μM Glutamate + 5μM MNI-137, Time 0.75 s): -0.09952
- Cross Correlation, Mean (mGluR2 [1]; 1000μM Glutamate + 5μM MNI-137, Time 0.8 s): -0.09295
- Cross Correlation, Mean (mGluR2 [1]; 1000μM Glutamate + 5μM MNI-137, Time 0.85 s): -0.08726
- Cross Correlation, Mean (mGluR2 [1]; 1000μM Glutamate + 5μM MNI-137, Time 0.9 s): -0.08538
- Cross Correlation, Mean (mGluR2 [1]; 1000μM Glutamate + 5μM MNI-137, Time 0.95 s): -0.07938
- Cross Correlation, Mean (mGluR2 [1]; 1000μM Glutamate + 5μM MNI-137, Time 1 s): -0.07503
- Cross Correlation, Mean (mGluR2 [1]; 1000μM Glutamate + 5μM MNI-137, Time 1.05 s): -0.07213
- Cross Correlation, Mean (mGluR2 [1]; 1000μM Glutamate + 5μM MNI-137, Time 1.1 s): -0.06374
- Cross Correlation, Mean (mGluR2 [1]; 1000μM Glutamate + 5μM MNI-137, Time 1.15 s): -0.06369
- Cross Correlation, Mean (mGluR2 [1]; 1000μM Glutamate + 5μM MNI-137, Time 1.2 s): -0.0627
- Cross Correlation, Mean (mGluR2 [1]; 1000μM Glutamate + 5μM MNI-137, Time 1.3 s): -0.05443
- Cross Correlation, Mean (mGluR2 [1]; 1000μM Glutamate + 5μM MNI-137, Time 1.35 s): -0.05075
- Cross Correlation, Mean (mGluR2 [1]; 1000μM Glutamate + 5μM MNI-137, Time 1.4 s): -0.05008
- Cross Correlation, Mean (mGluR2 [1]; 1000μM Glutamate + 5μM MNI-137, Time 1.45 s): -0.0474
- Cross Correlation, Mean (mGluR2 [1]; 1000μM Glutamate + 5μM MNI-137, Time 1.5 s): -0.04472
- Cross Correlation, Mean (mGluR2 [1]; 1000μM Glutamate + 5μM MNI-137, Time 1.55 s): -0.04463
- Cross Correlation, Mean (mGluR2 [1]; 1000μM Glutamate + 5μM MNI-137, Time 1.65 s): -0.03966
- Cross Correlation, Mean (mGluR2 [1]; 1000μM Glutamate + 5μM MNI-137, Time 1.7 s): -0.03894
- Cross Correlation, Mean (mGluR2 [1]; 1000μM Glutamate + 5μM MNI-137, Time 1.75 s): -0.03942
- Cross Correlation, Mean (mGluR2 [1]; 1000μM Glutamate + 5μM MNI-137, Time 1.8 s): -0.03907
- Cross Correlation, Mean (mGluR2 [1]; 1000μM Glutamate + 5μM MNI-137, Time 1.9 s): -0.0321
- Cross Correlation, Mean (mGluR2 [1]; 1000μM Glutamate + 5μM MNI-137, Time 1.95 s): -0.034
- CRD dynamics by cross-correlation of donor and acceptor intensities (mGluR2 [1]; 5 μM modulator, absence of glutamate): reduced CRD dynamics
- smFRET Histogram, Mean (mGluR2 [2]; FRET 0): 5.11E-04
- smFRET Histogram, Mean (mGluR2 [2]; FRET 0.02): 6.64E-04
- smFRET Histogram, Mean (mGluR2 [2]; FRET 0.04): 0.00218
- smFRET Histogram, Mean (mGluR2 [2]; FRET 0.06): 0.00418
- smFRET Histogram, Mean (mGluR2 [2]; FRET 0.08): 0.00801
Substance: MNI-137
- CRD dynamics by cross-correlation of donor and acceptor intensities (mGluR2 [1]; 5 μM modulator with 15 μM and 1 mM glutamate): glutamate concentration-dependent increase in the CRD dynamics
